Assays:
Assay type in all cases: cell-based
[1] = target: T1, BRAF G469A (Homo sapiens, UniProt P15056, G469A); test: BRAF HiBiT degradation assay, C-terminal HiBiT-tagged BRAF G469A overexpressed in HCT-116 BRAF−/− cells (clone 34), Nano-Glo HiBiT Lytic assay
T1 construct: Horizon Discovery (HCT-116 BRAF−/− cells); host or cells: HCT-116 BRAF−/− cells, clone 34, lentiviral transduction
Summary of the method: (§1)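 Degradation was read by Nano-Glo HiBiT lytic luminescence, normalised to DMSO-treated tagged cells with wildtype HCT-116 as background. Test cells were lentiviral clones of HCT-116 BRAF−/− carrying HiBiT-tagged mutants in RPMI/10% FBS, given compound at 0.01 nM–1 μM in duplicate. Outputs are the curve-fitted concentration giving 50% degradation and the maximal observed degradation.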

[2] = target: T2, BRAF V600E (Homo sapiens, UniProt P15056, V600E); test: BRAF HiBiT degradation assay, C-terminal HiBiT-tagged BRAF V600E A375 cells (clone 1F10), Nano-Glo HiBiT Lytic assay; conditions: for Dmax: A-375
T2 construct: endogenous C-terminal HiBiT fusion tag on BRAF V600E allele; endogenous in cells; host or cells: A375 clone 1F10 (CRISPR-Cas9 knock-in of the HiBiT tag; parental A375 from ATCC)
Summary of the method: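 Luminescence from the Nano-Glo HiBiT lytic read-out gave % BRAF V600E remaining versus DMSO-treated tagged cells, with untagged A375 as background. Clone 1F10 cells (10,000/well, 24 h pre-culture) received compound at 1 μM–0.01 nM in half-log steps, 0.2% DMSO; curve fits gave DC50 at Y=50, plus observed Dmax.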

[3] = target: T3, BRAF D594G (Homo sapiens, UniProt P15056, D594G); test: BRAF HiBiT degradation assay, C-terminal HiBiT-tagged BRAF D594G overexpressed in HCT-116 BRAF−/− cells (clone 63), Nano-Glo HiBiT Lytic assay
T3 construct: Horizon Discovery (HCT-116 BRAF−/− cells); host or cells: HCT-116 BRAF−/− cells, clone 63, lentiviral transduction
Summary of the method: as §1

[4] = target: T4, BRAF G466V (Homo sapiens, UniProt P15056, G466V); test: BRAF HiBiT degradation assay, C-terminal HiBiT-tagged BRAF G466V overexpressed in HCT-116 BRAF−/− cells (clone 8), Nano-Glo HiBiT Lytic assay
T4 construct: Horizon Discovery (HCT-116 BRAF−/− cells); host or cells: HCT-116 BRAF−/− cells, clone 8, lentiviral transduction
Summary of the method: as §1

[5] = BRAF G469A (Class 2), HCT-116 BRAF−/− cells, DC50 at 50% degradation
[6] = BRAF G469A (Class 2), HCT-116 BRAF−/− cells, observed Dmax relative to DMSO control
[7] = A375 (BRAF V600E, Class 1), DC50 at 50% degradation
[8] = A375 (BRAF V600E, Class 1), observed Dmax, % protein degraded relative to DMSO control
[9] = BRAF D594G (Class 3), HCT-116 BRAF−/− cells, DC50 at 50% degradation
[10] = BRAF D594G (Class 3), HCT-116 BRAF−/− cells, observed Dmax relative to DMSO control
[11] = BRAF G466V (Class 3), HCT-116 BRAF−/− cells, DC50 at 50% degradation
[12] = BRAF G466V (Class 3), HCT-116 BRAF−/− cells, observed Dmax relative to DMSO control
[13] = Class 2, BRAF G469A, DC50 at 50%: fitted conc. at Y=50
[14] = HCT-116, Class 2, BRAF G469A, percentage protein degraded at maximal compound effect relative to DMSO
[15] = A375 (BRAF V600E), DC50 at 50%: fitted conc. at Y=50
[16] = A375 (BRAF V600E), percentage protein degraded at maximal compound effect relative to DMSO
[17] = BRAF D594G, DC50 at 50%: fitted conc. at Y=50
[18] = HCT-116, BRAF D594G, percentage protein degraded at maximal compound effect relative to DMSO
[19] = BRAF G466V, DC50 at 50%: fitted conc. at Y=50
[20] = HCT-116, BRAF G466V, percentage protein degraded at maximal compound effect relative to DMSO

T3 sequence (P15056 whole entry D594G): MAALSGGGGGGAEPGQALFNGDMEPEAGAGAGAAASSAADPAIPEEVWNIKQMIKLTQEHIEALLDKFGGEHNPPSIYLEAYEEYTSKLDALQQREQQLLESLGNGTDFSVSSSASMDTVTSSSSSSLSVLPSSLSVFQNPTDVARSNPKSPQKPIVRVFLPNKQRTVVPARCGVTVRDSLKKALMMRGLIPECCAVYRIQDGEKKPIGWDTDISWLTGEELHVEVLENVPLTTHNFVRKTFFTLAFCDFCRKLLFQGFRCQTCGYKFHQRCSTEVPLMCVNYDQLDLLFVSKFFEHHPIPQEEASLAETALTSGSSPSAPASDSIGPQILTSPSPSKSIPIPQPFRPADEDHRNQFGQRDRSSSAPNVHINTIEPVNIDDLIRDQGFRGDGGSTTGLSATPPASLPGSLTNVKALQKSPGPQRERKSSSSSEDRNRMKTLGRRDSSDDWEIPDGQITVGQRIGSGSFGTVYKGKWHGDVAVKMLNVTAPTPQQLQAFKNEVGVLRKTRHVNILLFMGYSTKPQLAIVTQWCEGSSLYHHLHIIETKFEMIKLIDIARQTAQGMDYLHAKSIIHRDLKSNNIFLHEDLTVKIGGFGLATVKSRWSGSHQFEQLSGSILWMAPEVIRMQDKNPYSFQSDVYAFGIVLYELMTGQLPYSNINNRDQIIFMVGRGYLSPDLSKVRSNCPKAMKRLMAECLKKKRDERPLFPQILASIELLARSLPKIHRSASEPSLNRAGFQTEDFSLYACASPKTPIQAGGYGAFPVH
T2 sequence (P15056 whole entry V600E, the tested form may be a part): as the sequence (P15056 whole entry D594G) above, with G594D, V600E counted along it
T4 sequence (P15056 whole entry G466V): as the sequence (P15056 whole entry D594G) above, with G466V, G594D counted along it
T1 sequence (P15056 whole entry G469A): as the sequence (P15056 whole entry D594G) above, with G469A, G594D counted along it

| Compound | DC50 [1, 5] [nM] | Dmax [1, 6] [%] | DC50 [2, 7] [nM] | Dmax [2, 8] [%] | DC50 [3, 9] [nM] | Dmax [3, 10] [%] | DC50 [4, 11] [nM] | Dmax [4, 12] [%] | DC50 [1, 13] [nM] | Dmax [1, 14] [%] | DC50 [2, 15] [nM] | Dmax [2, 16] [%] | DC50 [3, 17] [nM] | Dmax [3, 18] [%] | DC50 [4, 19] [nM] | Dmax [4, 20] [%] |
| --- | --- | --- | --- | --- | --- | --- | --- | --- | --- | --- | --- | --- | --- | --- | --- | --- |
| O=C1CCC(N2C(=O)c3ccc(N4CC(CN5CC(c6ccc(-n7cc(-c8ccc9c(c8)CC/C9=N/O)c(-c8ccncc8)n7)cc6)C5)C4)cc3C2=O)C(=O)N1 (racemic) [Compound 262, Rac-2-[(3R)-2,6-dioxopiperidin-3-yl]-5-(3-{[3-(4-{4-[(1Z)-1-(hydroxyimino)-2,3-dihydro-1H-inden-5-yl]-3-(pyridin-4-yl)-1H-pyrazol-1-yl}phenyl)azetidin-1-yl]methyl}azetidin-1-yl)-2,3-dihydro-1H-isoindole-1,3-dione] | > 500 | < 30 | < 10 | > 70 | > 500 | < 30 | > 500 | < 30 |  |  |  |  |  |  |  |  |
| CCN(C)S(=O)(=O)Nc1cc(Cl)cc(-c2cn(-c3ccc(N4CCN(CC5CCN(c6ccc(C7CCC(=O)NC7=O)cn6)CC5)CC4)cc3)nc2-c2ccncc2)c1F (racemic) [Compound 308, Rac-(3R)-3-(6-{4-[(4-{4-[4-(5-chloro-3-{[ethyl(methyl)sulfamoyl]amino}-2-fluorophenyl)-3-(pyridin-4-yl)-1H-pyrazol-1-yl]phenyl}piperazin-1-yl)methyl]piperidin-1-yl}pyridin-3-yl)piperidine-2,6-dione] | 10 to 50 | > 70 | < 10 | > 70 | < 10 | > 70 | < 10 | > 70 |  |  |  |  |  |  |  |  |
| CCCS(=O)(=O)Nc1cccc(-c2nc(-c3ccc(C4CCN(CC5CCN(c6ccc([C@@H]7CCC(=O)NC7=O)cc6)CC5)CC4)cc3)sc2-c2ccnc(N)n2)c1F [Compound 192, N-{3-[5-(2-aminopyrimidin-4-yl)-2-(4-{1-[(1-{4-[(3S)-2,6-dioxopiperidin-3-yl]phenyl}piperidin-4-yl)methyl]piperidin-4-yl}phenyl)-1,3-thiazol-4-yl]-2-fluorophenyl}propane-1-sulfonamide] |  |  |  |  |  |  |  |  | > 500 | < 30 | 10 to 50 | > 70 | > 500 | 30 to 70 | > 500 | 30 to 70 |
| CCCS(=O)(=O)Nc1cccc(-c2nc(C3CCN(C(=O)C4CCN(C(=O)C5CCN(c6ccc(C7CCC(=O)NC7=O)cn6)CC5)CC4)CC3)sc2-c2ccnc(NC(C)C)n2)c1F (racemic) [Compound 206, Rac-N-[3-(2-{1-[1-(1-{5-[(3R)-2,6-dioxopiperidin-3-yl]pyridin-2-yl}piperidine-4-carbonyl)piperidine-4-carbonyl]piperidin-4-yl}-5-{2-[(propan-2-yl)amino]pyrimidin-4-yl}-1,3-thiazol-4-yl)-2-fluorophenyl]propane-1-sulfonamide] |  |  |  |  |  |  |  |  | > 500 | 30 to 70 | < 10 | > 70 | < 10 | 30 to 70 | 10 to 50 | 30 to 70 |
| CCN(C)S(=O)(=O)Nc1cccc(-c2nc(C3CCN(C(=O)C4CCN(C(=O)C5CCN(c6ccc(C7CCC(=O)NC7=O)cn6)CC5)CC4)CC3)sc2-c2ccnc(N)n2)c1F (racemic) [Compound 209, Rac-(3S)-3-{6-[4-(4-{4-[5-(2-aminopyrimidin-4-yl)-4-(3-{[ethyl(methyl)sulfamoyl]amino}-2-fluorophenyl)-1,3-thiazol-2-yl]piperidine-1-carbonyl}piperidine-1-carbonyl)piperidin-1-yl]pyridin-3-yl}piperidine-2,6-dione] |  |  |  |  |  |  |  |  | 10 to 50 | 30 to 70 | < 10 | > 70 | < 10 | > 70 | < 10 | > 70 |
| CCCS(=O)(=O)Nc1cccc(-c2nc(C(C)(C)C)sc2-c2ccnc(N[C@H]3CC[C@@H](N4CCN(CC5CCN(c6ccc(C7CCC(=O)NC7=O)cn6)CC5)CC4)CC3)n2)c1F (mixture of isomers) [Compound 134, N-{3-[2-tert-butyl-5-(2-{[(1s,4s)-4-{4-[(1-{5-[(3RS)-2,6-dioxopiperidin-3-yl]pyridin-2-yl}piperidin-4-yl)methyl]piperazin-1-yl}cyclohexyl]amino}pyrimidin-4-yl)-1,3-thiazol-4-yl]-2-fluorophenyl}propane-1-sulfonamide] |  |  |  |  |  |  |  |  | 50 to 500 | 30 to 70 | 10 to 50 | > 70 | 10 to 50 | 30 to 70 | 10 to 50 | 30 to 70 |
| CCCS(=O)(=O)Nc1cccc(-c2nc(C3CCN(C(=O)C4(C)CCN(C(=O)C5CCN(c6ccc(C7CCC(=O)NC7=O)cc6)CC5)CC4)CC3)sc2-c2ccnc(NC(C)C)n2)c1F (racemic) [Compound 179, Rac-N-[3-(2-{1-[1-(1-{4-[(3R)-2,6-dioxopiperidin-3-yl]phenyl}piperidine-4-carbonyl)-4-methylpiperidine-4-carbonyl]piperidin-4-yl}-5-{2-[(propan-2-yl)amino]pyrimidin-4-yl}-1,3-thiazol-4-yl)-2-fluorophenyl]propane-1-sulfonamide] |  |  |  |  |  |  |  |  | > 500 | < 30 | < 10 | > 70 | < 10 | 30 to 70 | > 500 | 30 to 70 |

Now from value to molecule:

| DC50 [1, 5] [nM] | Dmax [1, 6] [%] | DC50 [2, 7] [nM] | Dmax [2, 8] [%] | DC50 [3, 9] [nM] | Dmax [3, 10] [%] | DC50 [4, 11] [nM] | Dmax [4, 12] [%] | DC50 [1, 13] [nM] | Dmax [1, 14] [%] | DC50 [2, 15] [nM] | Dmax [2, 16] [%] | DC50 [3, 17] [nM] | Dmax [3, 18] [%] | DC50 [4, 19] [nM] | Dmax [4, 20] [%] | Compound |
| --- | --- | --- | --- | --- | --- | --- | --- | --- | --- | --- | --- | --- | --- | --- | --- | --- |
| 50 to 500 | 30 to 70 | 10 to 50 | > 70 | < 10 | 30 to 70 | < 10 | > 70 |  |  |  |  |  |  |  |  | O=C1CCC(c2ccc(N3CCC(CN4CCN(c5ccc(-n6cc(-c7cc(Cl)cc(NS(=O)(=O)N8CCCC8)c7F)c(-c7ccncc7)n6)cc5)CC4)CC3)c(F)c2F)C(=O)N1 (racemic) [Compound 385, Rac-N-{5-chloro-3-[1-(4-{4-[(1-{4-[(3R)-2,6-dioxopiperidin-3-yl]-2,3-difluorophenyl}piperidin-4-yl)methyl]piperazin-1-yl}phenyl)-3-(pyridin-4-yl)-1H-pyrazol-4-yl]-2-fluorophenyl}pyrrolidine-1-sulfonamide] |
| < 10 | > 70 | < 10 | > 70 | < 10 | 30 to 70 | < 10 | > 70 |  |  |  |  |  |  |  |  | O=C1CCC(c2ccc(N3CCC(CN4CCN(c5ccc(-n6cc(-c7cc(Cl)cc(NS(=O)(=O)N8CC(F)C8)c7F)c(-c7ccncc7)n6)cc5)CC4)CC3)nc2)C(=O)N1 (racemic) [Compound 332, Rac-N-{5-chloro-3-[1-(4-{4-[(1-{5-[(3R)-2,6-dioxopiperidin-3-yl]pyridin-2-yl}piperidin-4-yl)methyl]piperazin-1-yl}phenyl)-3-(pyridin-4-yl)-1H-pyrazol-4-yl]-2-fluorophenyl}-3-fluoroazetidine-1-sulfonamide] |
| < 10 | 30 to 70 | < 10 | > 70 | < 10 | 30 to 70 | 10 to 50 | 30 to 70 |  |  |  |  |  |  |  |  | O=C1CCN(c2ccc(N3CCC(CN4CCN(c5ccc(-n6cc(-c7cc(Cl)cc(NS(=O)(=O)N8CC(F)C8)c7F)c(-c7ccncc7)n6)c(F)c5)CC4)CC3)nc2)C(=O)N1 [Compound 369, N-[5-chloro-3-(1-{4-[4-({1-[5-(2,4-dioxo-1,3-diazinan-1-yl)pyridin-2-yl]piperidin-4-yl}methyl)piperazin-1-yl]-2-fluorophenyl}-3-(pyridin-4-yl)-1H-pyrazol-4-yl)-2-fluorophenyl]-3-fluoroazetidine-1-sulfonamide] |

From US20260317324A1, “BIFUNCTIONAL COMPOUNDS FOR DEGRADING BRAF VIA UBIQUITIN PROTEOSOME PATHWAY” (Nurix Therapeutics, Inc., priority 2023, published 2026)
